Reference: DBAASP
In brackets after ≈: the same amount, converted by molar mass.

Tests used:
Test in all cases: ≥ marks a high value that may be exact or a test limit, other limits are often not marked, values filed in µg/mL are converted to µM
[1] = system: Botrytis cinerea
[2] = system: Alternaria alternata
[3] = system: Pectobacterium carotovorum subsp. carotovorum DSM 30168
[4] = system: Fusarium solani
[5] = system: Xanthomonas vesicatoria DSM 50861
[6] = system: Clavibacter michiganensis subsp. michiganensis DSM 46294
[7] = system: Pseudomonas syringae pv. tomato DC3000
[8] = system: Pseudomonas corrugata DSM 7228
[9] = system: Cladosporium herbarum
[10] = system: Pseudomonas syringae pv. syringae DSM 10604
[11] = system: Escherichia coli KCTC 1682
[12] = system: Staphylococcus epidermidis KCTC 1917
[13] = system: Bacillus subtilis KCTC 3068
[14] = system: Pseudomonas aeruginosa KCTC 1637
[15] = system: Enterococcus faecium KCCM 12118
[16] = system: Staphylococcus aureus KCCM 40510
[17] = system: Enterococcus faecium ATCC 51559
[18] = system: Staphylococcus aureus KCTC 1621
[19] = system: Salmonella typhimurium KCTC 1926
[20] = system: Enterococcus faecalis KCCM 29212
[21] = system: Enterococcus faecalis ATCC 51575
[22] = system: Staphylococcus aureus ATCC 33591
[23] = system: Staphylococcus aureus ATCC 25923
[24] = system: Staphylococcus epidermidis ATCC 35984
[25] = system: Pseudomonas aeruginosa 1109
[26] = system: Pseudomonas aeruginosa ATCC 27853
[27] = system: Pseudomonas aeruginosa PAO1
[28] = system: Pseudomonas aeruginosa ATCC 9721
[29] = system: Acinetobacter baumannii NR-9667
[30] = system: Pseudomonas aeruginosa ATCC 9027
[31] = system: Pseudomonas aeruginosa ATCC 25619
[32] = system: Acinetobacter baumannii ATCC BAA-747
[33] = system: Pseudomonas aeruginosa ATCC 15442
[34] = system: Pseudomonas aeruginosa ATCC BAA-1744
[35] = system: Pseudomonas aeruginosa ATCC 35032
[36] = system: Acinetobacter baumannii ATCC 19606
[37] = system: Acinetobacter baumannii ATCC BAA-1605
[38] = system: Pseudomonas aeruginosa ATCC 10145
[39] = system: Escherichia coli ATCC 25922
[40] = system: Candida albicans SC5314
[41] = system: Bacillus subtilis
[42] = system: Staphylococcus aureus ATCC 2592

## C[C@H](NC(=O)[C@H](Cc1cnc[nH]1)NC(=O)[C@H](CO)NC(=O)[C@@H](N)CC(=O)O)C(=O)N[C@@H](CCCCN)C(=O)N[C@@H](CCCN=C(N)N)C(=O)N[C@@H](Cc1cnc[nH]1)C(=O)N[C@@H](Cc1cnc[nH]1)C(=O)NCC(=O)N[C@H](C(=O)N[C@@H](CCCCN)C(=O)N[C@@H](CCCN=C(N)N)C(=O)N[C@@H](CCCCN)C(=O)N[C@@H](Cc1ccccc1)C(=O)N[C@@H](Cc1cnc[nH]1)C(=O)N[C@@H](CCC(=O)O)C(=O)N[C@@H](CCCCN)C(=O)N[C@@H](Cc1cnc[nH]1)C(=O)N[C@@H](Cc1cnc[nH]1)C(=O)N[C@@H](CO)C(=O)N[C@@H](Cc1cnc[nH]1)C(=O)N[C@@H](CCCN=C(N)N)C(=O)NCC(=O)N[C@H](C(=O)O)[C@@H](C)O)[C@@H](C)O [DSHAKRHHGTKRKFHEKHHSHRGT]
[1]
  MIC: 22 µM (≈ 64 µg/mL)
[2]
  MIC: 22 µM (≈ 64 µg/mL)
[3]
  MIC: 22 µM (≈ 64 µg/mL)
[4]
  MIC: 5.49 µM (≈ 16 µg/mL)
[5]
  MIC: 22 µM (≈ 64 µg/mL)
[6]
  MIC: 22 µM (≈ 64 µg/mL)
[7]
  MIC: 22 µM (≈ 64 µg/mL)
[8]
  MIC: 22 µM (≈ 64 µg/mL)
[9]
  MIC: 22 µM (≈ 64 µg/mL)
[10]
  MIC: 22 µM (≈ 64 µg/mL)

## CC[C@H](C)[C@H](NC(=O)[C@H](CS)NC(=O)[C@H](CC(C)C)NC(=O)[C@@H](N)CC(C)C)C(=O)N[C@@H](C)C(=O)N[C@@H](CC(C)C)C(=O)N[C@@H](CCCN=C(N)N)C(=O)N[C@@H](CCCCN)C(=O)N[C@@H](CCCCN)C(N)=O [LLCIALRKK]
[11]
  MIC: 3.78 µM (≈ 4 µg/mL)
[12]
  MIC: 3.78 µM (≈ 4 µg/mL)
[13]
  MIC: 3.78 µM (≈ 4 µg/mL)
[14]
  MIC: 7.57 µM (≈ 7.99 µg/mL)
[15]
  MIC: 7.57 µM (≈ 7.99 µg/mL)
[16]
  MIC: 7.57 µM (≈ 7.99 µg/mL)
[17]
  MIC: 1.89 µM (≈ 2 µg/mL)
[18]
  MIC: 7.57 µM (≈ 7.99 µg/mL)
[19]
  MIC: 3.78 µM (≈ 4 µg/mL)
[20]
  MIC: 0.946 µM (≈ 0.999 µg/mL)
[21]
  MIC: 0.946 µM (≈ 0.999 µg/mL)

## CC[C@H](C)[C@H](NC(=O)CN)C(=O)NCC(=O)N[C@@H](CCCCN)C(=O)N[C@@H](Cc1ccccc1)C(=O)N[C@@H](CC(C)C)C(=O)N[C@@H](CCCCN)C(=O)N[C@@H](CCCCN)C(=O)N[C@@H](C)C(=O)N[C@@H](CCCCN)C(=O)N[C@@H](CCCCN)C(=O)N[C@@H](Cc1ccccc1)C(=O)NCC(=O)N[C@@H](CCCCN)C(=O)N[C@@H](C)C(=O)N[C@@H](Cc1ccccc1)C(=O)N[C@H](C(N)=O)C(C)C [GIGKFLKKAKKFGKAFV]
[22]
  MIC: ≥ 48.5 µM
[23]
  MIC: 17.1 µM (≈ 32 µg/mL)
[24]
  MIC: 3.03 µM (≈ 5.65 µg/mL)

## CC[C@H](C)[C@H](NC(=O)[C@H](CCCCN)NC(=O)[C@H](CCCN=C(N)N)NC(=O)[C@H](CC(C)C)NC(=O)[C@H](C)NC(=O)[C@H](CCCCN)NC(=O)[C@H](CS)NC(=O)[C@H](CC(C)C)NC(=O)[C@@H](N)CC(C)C)C(N)=O [LLCKALRKI]
[11]
  MIC: 7.57 µM (≈ 7.99 µg/mL)
[12]
  MIC: 7.57 µM (≈ 7.99 µg/mL)
[13]
  MIC: 3.78 µM (≈ 4 µg/mL)
[14]
  MIC: 7.57 µM (≈ 7.99 µg/mL)
[15]
  MIC: 3.78 µM (≈ 4 µg/mL)
[16]
  MIC: 7.57 µM (≈ 7.99 µg/mL)
[17]
  MIC: 1.89 µM (≈ 2 µg/mL)
[18]
  MIC: 7.57 µM (≈ 7.99 µg/mL)
[19]
  MIC: 7.57 µM (≈ 7.99 µg/mL)
[20]
  MIC: 7.57 µM (≈ 7.99 µg/mL)
[21]
  MIC: 30.3 µM (≈ 32 µg/mL)

## CC[C@H](C)[C@H](NC(=O)[C@H](CCCCN)NC(=O)[C@H](CCCCN)NC(=O)[C@H](Cc1c[nH]c2ccccc12)NC(=O)[C@@H](NC(=O)[C@H](CCCCN)NC(=O)[C@@H](NC(=O)[C@H](CCCN=C(N)N)NC(=O)[C@H](CCCN=C(N)N)NC(=O)[C@H](CCCCN)NC(=O)[C@@H](N)Cc1c[nH]c2ccccc12)[C@@H](C)CC)[C@@H](C)CC)C(=O)N[C@@H](CCCN=C(N)N)C(=O)O [WKRRIKIWKKIR]
[25]
  MIC: ≥ 128 µM
[26]
  MIC: 256 µM (≈ 438 µg/mL)
[27]
  MIC: > 256 µM
[28]
  MIC: ≥ 256 µM
[29]
  MIC: ≥ 256 µM
[30]
  MIC: > 256 µM
[31]
  MIC: ≥ 256 µM
[32]
  MIC: ≥ 256 µM
[33]
  MIC: ≥ 256 µM
[34]
  MIC: ≥ 256 µM
[35]
  MIC: ≥ 256 µM
[36]
  MIC: > 256 µM
[37]
  MIC: ≥ 256 µM
[38]
  MIC: ≥ 256 µM

## CC(C)[C@H](N)C(=O)N[C@@H](CCCCN)C(=O)N[C@@H](CCCN=C(N)N)C(=O)N[C@@H](Cc1c[nH]c2ccccc12)C(=O)N[C@@H](CCCCN)C(=O)N[C@@H](CCCCN)C(=O)N[C@@H](Cc1c[nH]c2ccccc12)C(=O)N[C@@H](Cc1ccccc1)C(=O)N[C@@H](CCCN=C(N)N)C(=O)N[C@@H](CCCCN)C(=O)N[C@@H](Cc1c[nH]c2ccccc12)C(=O)N[C@@H](CCCCN)C(=O)N[C@@H](CCCCN)C(=O)N[C@@H](Cc1c[nH]c2ccccc12)C(=O)N[C@H](C(N)=O)C(C)C [VKRWKKWFRKWKKWV]
[39]
  MIC: 2.1 µM (≈ 4.6 µg/mL)
[40]
  MIC: 4.3 µM (≈ 9.41 µg/mL)
[41]
  MIC: 4.3 µM (≈ 9.41 µg/mL)
[42]
  MIC: 8.5 µM (≈ 18.6 µg/mL)

## CC[C@H](C)[C@H](NC(=O)[C@H](CCCCN)NC(=O)[C@@H](NC(=O)[C@H](Cc1ccccc1)NC(=O)[C@H](C)NC(=O)[C@H](CCCCN)NC(=O)CNC(=O)[C@H](Cc1ccccc1)NC(=O)[C@H](CCCCN)NC(=O)[C@H](CCCCN)NC(=O)[C@H](C)N)C(C)C)C(=O)N[C@@H](CC(C)C)C(N)=O [AKKFGKAFVKIL]
[26]
  MIC: 33.5 µM (≈ 45.2 µg/mL)
[22]
  MIC: ≥ 94.8 µM
[23]
  MIC: 190 µM (≈ 256 µg/mL)
[24]
  MIC: ≥ 94.8 µM
